# Results as given in patent US20220323406A1, “METHODS AND COMPOSITIONS FOR DIFFERENTIATING STEM CELLS” (Massachusetts Institute of Technology, priority 2019, published 2022).
# How the values were obtained:
# [1] = tested on: ENR+CD organoids (ISC to Paneth cell differentiation); experiment: Primary screen: basal (non-stimulated) lysozyme secretion LYZ.NS, 2.5-D 384-well ENR+CD organoid differentiation; format: cell-based, mouse; details: primary screen; for Z.LYZ.NS: standard z score
# From the text: (§1) High-throughput screening.
# [2] = tested on: ENR+CD organoids (ISC to Paneth cell differentiation); experiment: Primary screen: CCh-stimulated lysozyme secretion LYZ.S, 2.5-D 384-well ENR+CD organoid differentiation; format: cell-based, mouse; details: primary screen
# From the text: as §1
# [3] = tested on: ENR+CD organoids; experiment: Primary screen: ATP (CellTiter-Glo 3D, CTG) cell number/viability, 2.5-D 384-well ENR+CD organoids; details: primary screen; for Z.CTG: standard z score;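 as to all read-outs here: compounds given at plating and again on day 3 over a 6-day differentiation from ENR+CV stem-cell-enriched precursors, ATP measured on day 6, plate median as control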
# [4] = dose 0.08 uM, FC relative to plate median
# [5] = dose 0.40 uM, FC relative to plate median
# [6] = dose 2.00 uM, FC relative to plate median
# [7] = dose 10.00 uM, FC relative to plate median
SMILES,Dose.FC.LYZ.NS ([1]; dose 0.08 uM) [log2 fold change],Z.LYZ.NS (standard z score) ([1]; dose 0.08 uM),Dose.FC.LYZ.NS ([1]; dose 0.40 uM) [log2 fold change],Z.LYZ.NS (standard z score) ([1]; dose 0.40 uM),Dose.FC.LYZ.NS ([1]; dose 2.00 uM) [log2 fold change],Z.LYZ.NS (standard z score) ([1]; dose 2.00 uM),Dose.FC.LYZ.NS ([1]; dose 10.00 uM) [log2 fold change],Z.LYZ.NS (standard z score) ([1]; dose 10.00 uM),Dose.FC.LYZ.S ([2]; dose 0.08 uM) [log2 fold change],Dose.FC.LYZ.S ([2]; dose 0.40 uM) [log2 fold change],Dose.FC.LYZ.S ([2]; dose 2.00 uM) [log2 fold change],Dose.FC.LYZ.S ([2]; dose 10.00 uM) [log2 fold change],Dose.FC.CTG ([3]; dose 0.08 uM) [log2 fold change],Z.CTG (standard z score) ([3]; dose 0.08 uM),Dose.FC.CTG ([3]; dose 0.40 uM) [log2 fold change],Z.CTG (standard z score) ([3]; dose 0.40 uM),Dose.FC.CTG ([3]; dose 2.00 uM) [log2 fold change],Z.CTG (standard z score) ([3]; dose 2.00 uM),Dose.FC.CTG ([3]; dose 10.00 uM) [log2 fold change],Z.CTG (standard z score) ([3]; dose 10.00 uM),other results
O=C1CC(=O)c2c(Cl)c(Cl)c(Cl)c(Cl)c21 [TCID],–,–,–,–,–,–,–,–,–,–,–,–,–,–,–,–,–,–,–,–,"Dose.FC.LYZ.NS [1, 4]: 0.049 log2 fold change; Z.LYZ.NS ([1]; dose 0.08 uM): 0.431; Dose.FC.LYZ.NS [1, 5]: −0.018 log2 fold change; Z.LYZ.NS ([1]; dose 0.40 uM): −0.155; Dose.FC.LYZ.NS [1, 6]: 0.066 log2 fold change; Z.LYZ.NS ([1]; dose 2.00 uM): 0.578; Dose.FC.LYZ.NS [1, 7]: −0.018 log2 fold change; Z.LYZ.NS ([1]; dose 10.00 uM): −0.159; Dose.FC.LYZ.S [2, 4]: 0.062 log2 fold change; Dose.FC.LYZ.S [2, 5]: 0.017 log2 fold change; Dose.FC.LYZ.S [2, 6]: −0.066 log2 fold change; Dose.FC.LYZ.S [2, 7]: −0.054 log2 fold change; Dose.FC.CTG [3, 4]: −0.136 log2 fold change; Z.CTG ([3]; dose 0.08 uM): −0.325; Dose.FC.CTG [3, 5]: −0.007 log2 fold change; Z.CTG ([3]; dose 0.40 uM): −0.017; Dose.FC.CTG [3, 6]: −0.217 log2 fold change; Z.CTG ([3]; dose 2.00 uM): −0.517; Dose.FC.CTG [3, 7]: −0.228 log2 fold change; Z.CTG ([3]; dose 10.00 uM): −0.545"
COc1ccc(C(=O)Nc2sc3c(c2C(N)=O)CCCC3)cc1OC [TCS 359],–,–,–,–,–,–,–,–,–,–,–,–,–,–,–,–,–,–,–,–,"Dose.FC.LYZ.NS [1, 4]: 0.085 log2 fold change; Z.LYZ.NS ([1]; dose 0.08 uM): 0.742; Dose.FC.LYZ.NS [1, 5]: 0.058 log2 fold change; Z.LYZ.NS ([1]; dose 0.40 uM): 0.502; Dose.FC.LYZ.NS [1, 6]: 0.018 log2 fold change; Z.LYZ.NS ([1]; dose 2.00 uM): 0.156; Dose.FC.LYZ.NS [1, 7]: −0.008 log2 fold change; Z.LYZ.NS ([1]; dose 10.00 uM): −0.072; Dose.FC.LYZ.S [2, 4]: 0.098 log2 fold change; Dose.FC.LYZ.S [2, 5]: 0.069 log2 fold change; Dose.FC.LYZ.S [2, 6]: −0.006 log2 fold change; Dose.FC.LYZ.S [2, 7]: 0.026 log2 fold change; Dose.FC.CTG [3, 4]: 0.150 log2 fold change; Z.CTG ([3]; dose 0.08 uM): 0.358; Dose.FC.CTG [3, 5]: 0.250 log2 fold change; Z.CTG ([3]; dose 0.40 uM): 0.598; Dose.FC.CTG [3, 6]: 0.050 log2 fold change; Z.CTG ([3]; dose 2.00 uM): 0.119; Dose.FC.CTG [3, 7]: −0.089 log2 fold change; Z.CTG ([3]; dose 10.00 uM): −0.212"
Nc1nc(N)c2nc(-c3cccc(O)c3)c(-c3cccc(O)c3)nc2n1 [TG100-115],0.208,1.812,−0.026,−0.223,0.003,0.025,−0.026,−0.223,0.073,0.032,−0.019,−0.100,−0.256,−0.611,0.066,0.158,−0.013,−0.031,−0.116,−0.277,–
NC(=O)Nc1sc(-c2ccc(F)cc2)cc1C(N)=O [TPCA-1],0.072,0.627,−0.047,−0.413,−0.059,−0.514,−0.197,−1.711,0.041,−0.029,−0.054,−0.294,−0.061,−0.146,−0.004,−0.010,−0.005,−0.012,−0.531,−1.269,–
Nc1cccc(-c2cc3c(Oc4cccc(O)c4)ncnc3[nH]2)c1 [TWS119],0.094,0.820,0.038,0.327,0.035,0.304,−0.233,−2.027,0.207,0.142,0.044,−0.283,0.328,0.784,0.333,0.796,0.071,0.169,−1.200,−2.866,–
